In brackets after ≈: the same amount, converted by molar mass.
Tests used:
chorioallantoic membrane = test: Hen's egg test-chorioallantoic membrane (HET-CAM); design: species or system white leghorn eggs
Procedure: The samples were all tested on the HET-CAM at 1 mg/ml, providing a range of 3.6 mM for linolenic acid to 5 mM for lauric acid. […] Results from the controls and an example of a tested candidate are illustrated in Fig. 5.
The HET-CAM was performed as described by Alany and coworkers ([20]). Fertilized white leghorn eggs (Henry Stewart and Co. Ltd., Fakenham, Norfolk, United Kingdom) were checked for damage and incubated at 37°C with 60% to 70% relative humidity. At day 4, the eggs were removed from their shells and placed in incubation chambers. At day 9, the CAMs were tested. This was done by applying 200 µl of the testing material and monitoring inflammatory responses at 30, 120, and 300 s. At each of these time points, the conjunctival irritation potential of the test substance on the CAMs was evaluated by assessing them against the published scoring system ([20]).

bovine cornea = test: Bovine corneal opacity and permeability (BCOP) test
Procedure: Bovine eyes were collected from a local slaughter house (ABP, Guildford, Surrey, United Kingdom) and were transported in cold saline solution for testing at the laboratory. Each eye was first visually examined for signs of damage before use. The test was conducted as detailed by Abdelkader and coworkers ([21]). The exposure time of the test substances was 30 s. The selected bactericidal compounds were tested at 1 mM in saline solution, with a corresponding vehicle control (1% ethanol–saline solution) also performed. […] The test area of the cornea was then washed with 10 ml saline solution. Corneal damage to the test area was assessed by fluorescein staining and examination under a cobalt blue filter. Pathological scoring based on opacity, epithelial integrity, and epithelial detachment was done in accordance with previous publications ([19]). Each of the seven lead candidates was tested in triplicate, and each test was performed on a separate day using a different batch of eyeballs. Corneal histology was done as outlined by Abdelkader and coworkers ([21]) by evaluating the damage to the epithelial layer and stroma of the cornea after hematoxylin and eosin staining.

[1] = tested on: N. gonorrhoeae strain NCCP11945; test: Growth inhibition screen on GC solid media containing 1 mM candidate; type: cell-based, Neisseria gonorrhoeae; conditions: 1 mM candidate in GC agar media; Yes = strain NCCP11945 did not grow
Procedure: (§1) To find potential candidates, 37 organic acids, esters, and salts were tested in a two-tiered screening process. These candidates were chosen based on the carbon chain lengths of the fatty acids, the presence or absence of saturation, and modifications to represent a diverse selection of organic acid candidates. The first screen aimed to determine the ability of each compound to inhibit the growth of N. gonorrhoeae strain NCCP11945 at 1 mM in GC solid media (Table 1). This strain was chosen due to its relatively recent isolation, its antibiotic resistance profile, and the availability of a complete genome sequence. Those candidates able to inhibit the growth of N. gonorrhoeae strain NCCP11945 were investigated in a second assay. The second assay tested the ability of each compound to cause at least a 4-log reduction in viable bacteria at 1 mM with a 2-min exposure time (Table 1).
(§2) The well-characterized N. gonorrhoeae NCCP11945 strain ([36]) was used in the screening stage. Eight isolates obtained from Public Health England, representing circulating isolates from various European locations, were used in the log reduction assays. All isolates were cultured for 24 h prior to testing by plating on GC solid medium (Oxoid Limited, Hampshire, United Kingdom) with Kellogg supplements and incubation at 37°C and 5% CO2 ([37]).

[2] = tested on: gonococcal cells (isolate NCCP 11945); test: Log reduction in artificial tear fluid with or without calcium chloride; type: cell-based, Neisseria gonorrhoeae; conditions: calcium 1 mM; Fig. 2
Procedure: The antigonococcal properties of the seven selected fatty acids were tested in artificial tear fluid, which contained calcium chloride. The addition of 1 mM lauric acid, tridecanoic acid, or sodium dodecanoate gave no reduction in bacterial cell number after exposure, in contrast to the results seen when they were tested in culture medium (Fig. 2). […] This was most likely due to the negative effect of calcium on the aqueous solubility of these candidates.
Artificial tear fluid was made as described by Mirejovsky and others ([39]) with or without calcium chloride. […] As with the previous log reductions, 10^7 gonococcal cells (isolate NCCP 11945) were suspended in GC broth. The cell suspension was centrifuged to remove the culture medium, and the bacteria were resuspended in the tear fluid. This was then added to the concentrated organic acid candidates. The cells were then enumerated again after 2 min of exposure to estimate any reduction in cell number due to the exposure to the organic acid.

C. trachomatis = tested on: C. trachomatis; design: method as in PMID 9736551; conditions: cited from earlier work
[3] = tested on: nine gonococcal isolates (strain NCCP11945 and eight isolates from Public Health England); test: Minimum bactericidal concentration by log reduction against nine gonococcal isolates; type: cell-based, Neisseria gonorrhoeae; conditions: 2 min; for Killing of all gonococcal cells for all isolates: 1 mM; for MBC: Neisseria gonorrhoeae, lowest concentration giving mean log reduction above 4 from a 2-min exposure, read-out: MBC
From the text: The seven candidates were further tested against nine gonococcal isolates, including strain NCCP11945 and eight isolates from Public Health England, to find their minimal bactericidal concentration (MBC). This was defined as the lowest concentration tested to give an average 4-log10 reduction in bacterial count after a 2-min exposure. […] Any candidate that killed all gonococcal cells in the cell suspension was given a log reduction score of six.
as §2
(§3) Log reductions were done as described by Bergsson and coworkers ([18]). Briefly, cells were suspended in GC broth (18 g/liter GC base [Oxoid, Limited] with added defined supplements) to an optical density at 520 nm of 0.3, which is approximately equivalent to 10^7 to 10^8 cells per ml ([38]). […] The contents of the tubes were then mixed at room temperature for 2 min and immediately diluted in a 10-fold dilution series to 10^−4. The dilutions were plated by spreading 10 µl on a quarter of a plate; a 100-µl neat solution was also plated. Plates were then incubated at 37°C for 48 h, with all samples plated in duplicate. […] Additional testing at lower concentrations was also done on the eight clinical isolates of European origin.

[4] = tested on: N. gonorrhoeae strain NCCP11945; test: Log reduction assay in GC broth, 2-min exposure; type: cell-based, Neisseria gonorrhoeae; conditions: for log reduction at 1000 µM: Neisseria gonorrhoeae, NCCP11945, 2 min, 1 mM, read-out: Log reduction at 1 mM (calculated log reduction in viable bacteria)
Procedure: as §1, §3

bovine RBCs = test: Red blood cell (RBC) lysis assay; type: cell-based; conditions: H50 = concentration to lyse 50% of RBCs; MBC from Table 1
Procedure: Whole bovine blood was obtained from a local slaughter house (ABP), adding 90 ml blood to 10 ml 110 mM trisodium citrate anticoagulant. RBCs were isolated the same day. The RBCs were washed by three repeats of centrifugation (1,500 × g for 10 min) and resuspension in phosphate-buffered saline (PBS) with 10 mM glucose (PBSG). Testing was done following the guidelines of the European Union Reference Laboratory for alternatives to animal testing (EURL-ECVAM) ([22]). The organic acids were solubilized in dimethyl sulfoxide (DMSO) and diluted to a maximum DMSO concentration of 10%. In a 2-ml centrifuge tube, 750 µl of the sample was added to 250 µl RBCs. Controls used in the assay were a complete lysis control (deionized water) and a fragility control (PBSG–10% DMSO). Samples were shaken at room temperature for 1 h and then centrifuged at 14,000 × g for 2 min. An aliquot of 750 µl of the supernatant was taken and its absorbance at 451 nm measured.

S. aureus = tested on: S. aureus; design: method as in PMID 22808139; conditions: continuous passage on sublethal concentrations for a year; cited from earlier work
[5] = maximum score 6 = all cells killed

| Compound | HET-CAM irritancy / reaction at site of application (chorioallantoic membrane) | Growth inhibition [1] | Killing of all gonococcal cells for all isolates [3] | MBC [3] [µM] | Log reduction at 1 mM: at least a 4-log reduction in viable bacteria (Yes/No) [4] | log reduction at 1000 µM [4, 5] | also measured |
| --- | --- | --- | --- | --- | --- | --- | --- |
| CC(C)=O [Acetone, acetone] | Medium Irritant |  |  |  |  |  |  |
| [Na+].[OH-] [Sodium Hydroxide, sodium hydroxide, reference compound] | Strong Irritant |  |  |  |  |  | Corneal opacity, fluorescein staining and histology of epithelial layer (bovine cornea; Fig. 4): complete detachment |
| CCCC/C=C\CCCCCCCC(=O)O [Myristoleic acid] |  | Yes | killed all gonococcal cells for all isolates | 500 (≈ 113 µg/mL) | Yes | > 6 | Effect of calcium in artificial tear fluid on antimicrobial effect [2]: unaffected; Activity against C. trachomatis (C. trachomatis): ineffective |
| CC/C=C\C/C=C\C/C=C\CCCCCCCC(=O)O [Linolenic acid] |  | Yes | did not | 500 (≈ 139 µg/mL) | Yes | > 6 | Mean cumulative BCOP score (bovine cornea; 1 mM in saline solution, 30 s exposure, triplicate): lower than 0.5; Fluorescein staining of cornea (bovine cornea; 1 mM, around rubber application ring): any sign of fluorescein staining; BCOP irritancy classification (bovine cornea; candidates 1 mM in saline, controls 0.5 M NaOH, 100% acetone, 30 s exposure): nonirritants; H50 concentration relative to MBC (bovine RBCs): lower than their minimum bactericidal concentration |
| CCCCCCCCCCCC(=O)OCC(O)CO (centres unmarked) [Monolaurin] |  | Yes |  |  | No |  | Log reduction at 1 mM (calculated log reduction in viable bacteria) [4, 5]: 3.4 log10; Development of antimicrobial resistance (S. aureus): did not develop |
